ChEMBL document CHEMBL1201862, “PubChem BioAssay data set” (2004)
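Where inhibition never reached the appropriate level, the endpoint shown equals the highest concentration tested. Otherwise, values were interpolated linearly from a five-concentration, 48-hour dose response in 96-well plates. The concentration for 50% growth inhibition is given as GI50.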 Active and inactive are the calls of the source. Cut-off read from the data, not from the text of the source: active = GI50 up to about 1.1 µM and inactive = higher.

Assays:
Experiment in all cases: inhibition of tumour cell growth, NCI panel, 48 h
[1] = test system: KM12
[2] = test system: NCI/ADR-RES
[3] = test system: NCI-H522
[4] = test system: HT-29
[5] = test system: MCF7
[6] = test system: U-251
[7] = test system: OVCAR-4
[8] = test system: OVCAR-5
[9] = test system: UO-31
[10] = test system: BT-549
[11] = test system: MDA-N
[12] = test system: MDA-MB-435
[13] = test system: SNB-19
[14] = test system: DU-145
[15] = test system: UACC-257
[16] = test system: M14
[17] = test system: CAKI-1
[18] = test system: NCI-H23
[19] = test system: A498
[20] = test system: EKVX
[21] = test system: Malme-3M
[22] = test system: SR
[23] = test system: 786-0
[24] = test system: HCT-15
[25] = test system: MOLT-4
[26] = test system: SW-620
[27] = test system: SF-295
[28] = test system: OVCAR-3
[29] = test system: NCI-H460
[30] = test system: TK-10
[31] = test system: RXF 393
[32] = test system: RPMI-8226
[33] = test system: HOP-62
[34] = test system: SK-OV-3
[35] = test system: A549
[36] = test system: HCT-116
[37] = test system: K562
[38] = test system: MDA-MB-231
[39] = test system: IGROV-1
[40] = test system: T47D
[41] = test system: SF-539
[42] = test system: HCC 2998
[43] = test system: SN12C
[44] = test system: COLO 205
[45] = test system: LOX IMVI
[46] = test system: ACHN
[47] = test system: SNB-75
[48] = test system: PC-3
[49] = test system: UACC-62
[50] = test system: Hs-578T
[51] = test system: SK-MEL-28
[52] = test system: SK-MEL-5
[53] = test system: SK-MEL-2
[54] = test system: OVCAR-8
[55] = test system: NCI-H226
[56] = test system: HL-60
[57] = test system: SF-268
[58] = test system: HOP-92
[59] = test system: CCRF-CEM

O=C(O)C1CC2(C1)CC(C(=O)O)C2 (stereo unspecified)
GI50 [1]: > 100 µM (inactive)
GI50 [2]: > 100 µM (inactive)
GI50 [3]: > 100 µM (inactive)
GI50 [4]: > 100 µM (inactive)
GI50 [5]: > 100 µM (inactive)
GI50 [6]: > 100 µM (inactive)
GI50 [7]: > 100 µM (inactive)
GI50 [8]: > 100 µM (inactive)
GI50 [9]: > 100 µM (inactive)
GI50 [10]: > 100 µM (inactive)
GI50 [11]: > 100 µM (inactive)
GI50 [12]: > 100 µM (inactive)
GI50 [13]: > 100 µM (inactive)
GI50 [14]: > 100 µM (inactive)
GI50 [15]: > 100 µM (inactive)
GI50 [16]: > 100 µM (inactive)
GI50 [17]: > 100 µM (inactive)
GI50 [18]: > 100 µM (inactive)
GI50 [19]: > 100 µM (inactive)
GI50 [20]: > 100 µM (inactive)
GI50 [21]: > 100 µM (inactive)
GI50 [22]: > 100 µM (inactive)
GI50 [23]: > 100 µM (inactive)
GI50 [24]: > 100 µM
GI50 [25]: > 100 µM (inactive)
GI50 [26]: > 100 µM (inactive)
GI50 [27]: > 100 µM (inactive)
GI50 [28]: > 100 µM (inactive)
GI50 [29]: > 100 µM (inactive)
GI50 [30]: > 100 µM (inactive)
GI50 [31]: > 100 µM (inactive)
GI50 [32]: > 100 µM (inactive)
GI50 [33]: > 100 µM (inactive)
GI50 [34]: > 100 µM (inactive)
GI50 [35]: > 100 µM (inactive)
GI50 [36]: > 100 µM (inactive)
GI50 [37]: > 100 µM (inactive)
GI50 [38]: > 100 µM (inactive)
GI50 [39]: > 100 µM (inactive)
GI50 [40]: > 100 µM (inactive)
GI50 [41]: > 100 µM (inactive)
GI50 [42]: > 100 µM (inactive)
GI50 [43]: > 100 µM (inactive)
GI50 [44]: > 100 µM (inactive)
GI50 [45]: > 100 µM (inactive)
GI50 [46]: > 100 µM (inactive)
GI50 [47]: > 100 µM (inactive)
GI50 [48]: > 100 µM (inactive)
GI50 [49]: > 100 µM (inactive)
GI50 [50]: > 100 µM (inactive)
GI50 [51]: > 100 µM (inactive)
GI50 [52]: > 100 µM (inactive)
GI50 [53]: > 100 µM (inactive)

Cn1c2ccccc2c(=O)c2cccc(C(=O)NC(CCC(N)=O)C(=O)O)c21 (stereo unspecified)
GI50 [1]: > 100 µM (inactive)
GI50 [2]: 60.3 µM (inactive)
GI50 [4]: > 100 µM (inactive)
GI50 [5]: > 100 µM (inactive)
GI50 [6]: > 100 µM (inactive)
GI50 [7]: > 100 µM (inactive)
GI50 [8]: > 100 µM (inactive)
GI50 [9]: > 10 µM (inactive)
GI50 [54]: > 100 µM (inactive)
GI50 [10]: > 100 µM (inactive)
GI50 [11]: > 100 µM (inactive)
GI50 [12]: > 100 µM (inactive)
GI50 [13]: > 100 µM (inactive)
GI50 [14]: > 100 µM (inactive)
GI50 [15]: > 100 µM (inactive)
GI50 [16]: > 100 µM (inactive)
GI50 [17]: > 100 µM (inactive)
GI50 [18]: > 100 µM (inactive)
GI50 [19]: > 100 µM (inactive)
GI50 [20]: > 100 µM (inactive)
GI50 [21]: > 100 µM (inactive)
GI50 [22]: 62.1 µM (inactive)
GI50 [23]: > 100 µM (inactive)
GI50 [24]: > 100 µM
GI50 [25]: > 100 µM (inactive)
GI50 [26]: > 100 µM (inactive)
GI50 [27]: > 100 µM (inactive)
GI50 [55]: > 100 µM (inactive)
GI50 [28]: > 100 µM (inactive)
GI50 [29]: > 100 µM (inactive)
GI50 [30]: > 100 µM (inactive)
GI50 [56]: 0.0585 µM (active)
GI50 [32]: > 100 µM (inactive)
GI50 [33]: > 100 µM (inactive)
GI50 [34]: > 100 µM (inactive)
GI50 [35]: > 100 µM (inactive)
GI50 [36]: > 100 µM (inactive)
GI50 [37]: > 100 µM (inactive)
GI50 [38]: > 100 µM (inactive)
GI50 [39]: > 100 µM (inactive)
GI50 [40]: > 100 µM (inactive)
GI50 [41]: > 100 µM (inactive)
GI50 [42]: > 100 µM (inactive)
GI50 [43]: > 100 µM (inactive)
GI50 [44]: > 100 µM (inactive)
GI50 [45]: > 100 µM (inactive)
GI50 [57]: > 100 µM (inactive)
GI50 [46]: > 100 µM (inactive)
GI50 [47]: > 100 µM (inactive)
GI50 [48]: > 100 µM (inactive)
GI50 [49]: > 100 µM (inactive)
GI50 [50]: > 100 µM (inactive)
GI50 [51]: > 100 µM (inactive)
GI50 [52]: > 100 µM (inactive)
GI50 [53]: > 100 µM (inactive)

O=C(O)/C(Cc1ccnc2ccccc12)=N\O
GI50 [1]: > 100 µM (inactive)
GI50 [2]: > 100 µM (inactive)
GI50 [3]: > 100 µM (inactive)
GI50 [4]: > 100 µM (inactive)
GI50 [5]: > 100 µM (inactive)
GI50 [6]: > 100 µM (inactive)
GI50 [7]: > 100 µM (inactive)
GI50 [8]: > 100 µM (inactive)
GI50 [58]: > 100 µM (inactive)
GI50 [9]: > 100 µM (inactive)
GI50 [54]: > 100 µM (inactive)
GI50 [10]: > 100 µM (inactive)
GI50 [11]: > 100 µM (inactive)
GI50 [12]: > 100 µM (inactive)
GI50 [13]: > 100 µM (inactive)
GI50 [14]: > 100 µM (inactive)
GI50 [15]: > 100 µM (inactive)
GI50 [16]: > 100 µM (inactive)
GI50 [17]: > 100 µM (inactive)
GI50 [18]: > 100 µM (inactive)
GI50 [19]: > 100 µM (inactive)
GI50 [20]: > 100 µM (inactive)
GI50 [21]: > 100 µM (inactive)
GI50 [22]: > 100 µM (inactive)
GI50 [23]: > 100 µM (inactive)
GI50 [24]: > 100 µM
GI50 [25]: > 100 µM (inactive)
GI50 [26]: > 100 µM (inactive)
GI50 [27]: > 100 µM (inactive)
GI50 [59]: > 100 µM (inactive)
GI50 [55]: > 100 µM (inactive)
GI50 [28]: > 100 µM (inactive)
GI50 [29]: > 100 µM (inactive)
GI50 [30]: > 100 µM (inactive)
GI50 [56]: > 100 µM (inactive)
GI50 [31]: > 100 µM (inactive)
GI50 [32]: > 100 µM (inactive)
GI50 [33]: > 100 µM (inactive)
GI50 [34]: > 100 µM (inactive)
GI50 [35]: > 100 µM (inactive)
GI50 [36]: > 100 µM (inactive)
GI50 [37]: > 100 µM (inactive)
GI50 [38]: > 100 µM (inactive)
GI50 [39]: > 100 µM (inactive)
GI50 [40]: > 100 µM (inactive)
GI50 [41]: > 100 µM (inactive)
GI50 [43]: > 100 µM (inactive)
GI50 [44]: > 100 µM (inactive)
GI50 [45]: > 100 µM (inactive)
GI50 [57]: > 100 µM (inactive)
GI50 [46]: > 100 µM (inactive)
GI50 [47]: > 100 µM (inactive)
GI50 [48]: > 100 µM (inactive)
GI50 [49]: > 100 µM (inactive)
GI50 [50]: > 100 µM (inactive)
GI50 [51]: > 100 µM (inactive)
GI50 [52]: > 100 µM (inactive)
GI50 [53]: > 100 µM (inactive)
